Among the data in PubChem BioAssay AID192 (DTP/NCI, 2004) are T/C values, retold here.

This test concerns BDF1 mice, B16 melanoma ip, median survival T/C. Description: NCI In Vivo Anticancer Drug Screen. Data for tumor model B16 Melanoma (intraperitoneal) in B6D2F1 (BDF1) mice. The settings on record: endpoint: median survival time, higher = longer survival. In short, it runs like this: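 Compounds were tested in mice carrying transplantable tumors. Survival or tumor size was recorded, and each value is the treated-group measurement (T) divided by that of the vehicle-treated control group (C).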

The mark [1] stands for this setting: dose: 3.12 mg/kg/injection, schedule: Q01DX009 (ip), vehicle: saline.
The mark [2] stands for this setting: dose: 6.25 mg/kg/injection, schedule: Q01DX009 (ip), vehicle: saline.
Where [3] appears, read: dose: 12.5 mg/kg/injection, schedule: Q01DX009 (ip), vehicle: saline.
Where [4] appears, read: dose: 50.0 mg/kg/injection, schedule: Q01DX009 (ip), vehicle: saline.
The mark [5] stands for this setting: dose: 12.5 mg/kg/injection, schedule: Q01DX009 (ip), vehicle: Klucel (hydroxypropylcellulose) (HPC).
Where [6] appears, read: dose: 25.0 mg/kg/injection, schedule: Q01DX009 (ip), vehicle: Klucel (hydroxypropylcellulose) (HPC).
[7] abbreviates: dose: 50.0 mg/kg/injection, schedule: Q01DX009 (ip), vehicle: Klucel (hydroxypropylcellulose) (HPC).
Where [8] appears, read: dose: 25.0 mg/kg/injection, schedule: Q01DX009 (ip), vehicle: saline.
[9] abbreviates: dose: 25.0 mg/kg/injection, schedule: Q01DX009 (ip), vehicle: saline with Tween-80.
Where [10] appears, read: dose: 50.0 mg/kg/injection, schedule: Q01DX009 (ip), vehicle: saline with Tween-80.
[11] abbreviates: dose: 100.0 mg/kg/injection, schedule: Q01DX009 (ip), vehicle: saline with Tween-80.
Setting [12] is: dose: 12.5 mg/kg/injection, schedule: Q01DX009 (ip), vehicle: saline with Tween-80.
Setting [13] is: dose: 3.12 mg/kg/injection, schedule: Q01DX009 (ip), vehicle: Klucel (hydroxypropylcellulose) (HPC).
Setting [14] is: dose: 6.25 mg/kg/injection, schedule: Q01DX009 (ip), vehicle: Klucel (hydroxypropylcellulose) (HPC).
Where [15] appears, read: dose: 100.0 mg/kg/injection, schedule: Q01DX009 (ip), vehicle: Klucel (hydroxypropylcellulose) (HPC).

Values joined by “and” are separate entries in the source; they are usually repeats but may differ in a detail not shown here. Equal values may be shown once. Inconclusive results and toxic doses are left out.

For the compound `CC(C)C1=CC2=CCC3C(C)(C(N)=O)CCCC3(C)C2CC1CC#N` (stereo not drawn), the T/C by setting is: (dose: 100.0 mg/kg/injection, schedule: Q04DX003 (ip), vehicle: saline with Tween-80) 102 % of control; (dose: 400.0 mg/kg/injection, schedule: Q04DX003 (ip), vehicle: saline with Tween-80) 88 % of control.
Consider `O=C(CCCN1CCC(O)(c2ccc(Cl)cc2)CC1)c1ccc(F)cc1`, for which the T/C is, setting by setting: under setting [1], 99 % of control; under setting [2], 114 % of control; under setting [3], 102 % of control; under setting [4], 99 % of control.
In the case of `COC1C(CO)OC(n2cnc3c(=S)nc(N)[nH]c32)C1O` (stereo not drawn), the T/C was 112 % of control under setting [5], 103 % of control under setting [6] and 108 % of control under setting [7].
As for `CCN(CC)CCCC(C)Nc1c2ccc(C)cc2nc2ccc(OC)cc12` (stereo not drawn), the T/C reads like this: under setting [2], 89 % of control; under setting [3], 99 % of control and 114 % of control; under setting [8], 124 % of control; under setting [4], 122 % of control and 123 % of control.
Take `CCCc1ccc(OC)cc1`: the T/C is, setting by setting: under setting [9], 97 % of control; under setting [10], 105 % of control; under setting [11], 90 % of control.
As for `CCOC(=O)c1ccc(OC(=O)Nc2ccc(Cl)cc2)cc1`, the T/C under setting [11] was 96 % of control and the T/C (dose: 200.0 mg/kg/injection, schedule: Q01DX009 (ip), vehicle: saline with Tween-80) is 92 % of control.
For the compound `O=C(CBr)CC(O)(C(F)(F)F)C(F)(F)F`, the T/C (dose: 0.75 mg/kg/injection, schedule: Q01DX009 (ip), vehicle: saline) is 100 % of control; the T/C (dose: 0.75 mg/kg/injection, schedule: Q04DX003 (ip), vehicle: saline) was 97 % of control; the T/C (dose: 1.5 mg/kg/injection, schedule: Q01DX009 (ip), vehicle: saline) was 105 % of control; the T/C (dose: 1.5 mg/kg/injection, schedule: Q04DX003 (ip), vehicle: saline) is 100 % of control; the T/C (dose: 3.0 mg/kg/injection, schedule: Q01DX009 (ip), vehicle: saline) was 94 % of control; the T/C (dose: 3.0 mg/kg/injection, schedule: Q04DX003 (ip), vehicle: saline) is 100 % of control and 105 % of control.
Regarding `C[Si]1(C)CCCSC1`, the T/C is 98 % of control under setting [12], 98 % of control under setting [9] and 91 % of control under setting [10].
`O=C1NC(=O)C(=Cc2cc3c(cc2Br)OCO3)C(=O)N1`: the T/C is 97 % of control under setting [12], 94 % of control under setting [9] and 94 % of control under setting [10].
For `COc1cc(/C=C/[N+](=O)[O-])c([N+](=O)[O-])cc1OC`, the T/C by setting is: under setting [2], 102 % of control; under setting [3], 90 % of control; under setting [8], 92 % of control.
As to `CC(C)(C)OC(=O)NC(Cc1ccc(OCc2c(Cl)cccc2Cl)cc1)C(=O)O` (stereo not drawn), the T/C under setting [9] was 101 % of control, the T/C under setting [10] was 104 % of control and the T/C under setting [11] was 86 % of control.
For the compound `CC(=O)SCC(C)CCl` (stereo not drawn), the T/C reads like this: under setting [10], 100 % of control; under setting [11], 100 % of control.
Consider `COCCOCCN1CCN(CCCN2c3ccccc3Sc3ccc(C(F)(F)F)cc32)CC1`, for which the T/C is, setting by setting: (dose: 0.31 mg/kg/injection, schedule: Q01DX009 (ip), vehicle: saline) 106 % of control; (dose: 0.62 mg/kg/injection, schedule: Q01DX009 (ip), vehicle: saline) 101 % of control; (dose: 1.25 mg/kg/injection, schedule: Q01DX009 (ip), vehicle: saline) 108 % of control; (dose: 2.5 mg/kg/injection, schedule: Q01DX009 (ip), vehicle: saline) 100 % of control.
As to `CC(C)c1ccc(C(c2c(O)c3ccccc3oc2=O)c2c(O)c3ccccc3oc2=O)cc1`, the T/C reads like this: under setting [5], 99 % of control; under setting [6], 97 % of control; under setting [7], 107 % of control.
Regarding `CC1(C)C=CC2=C(O1)C(=O)c1ccccc1C2=O`, the T/C reads like this: (dose: 25.0 mg/kg/injection, schedule: Q01DX009 (ip), vehicle: water) 104 % of control; (dose: 50.0 mg/kg/injection, schedule: Q01DX009 (ip), vehicle: water) 99 % of control; (dose: 100.0 mg/kg/injection, schedule: Q01DX009 (ip), vehicle: water) 93 % of control; (dose: 200.0 mg/kg/injection, schedule: Q01DX009 (ip), vehicle: water) 91 % of control.
Take `O=C(Nc1ccc(Cl)c(Cl)c1)Nc1c(Oc2ccc(Cl)c(Cl)c2)ccc(Cl)c1S(=O)(=O)O`: the T/C was 119 % of control under setting [13]; 105 % of control under setting [14]; 122 % of control (dose: 6.25 mg/kg/injection, schedule: Q01DX009 (ip), vehicle: saline with Tween-80); 105 % of control under setting [5]; 116 % of control under setting [6]; 122 % of control under setting [9]. Moreover, the T/C was 112 % of control under setting [7] and 123 % of control under setting [15].
Consider `O=C(O)C(O)C(=O)O.[NH2-].[NH2-].[Pt+2]`, for which the T/C is, setting by setting: (dose: 1.0 mg/kg/injection, schedule: Q01DX009 (ip), vehicle: other) 104 % of control; (dose: 8.0 mg/kg/injection, schedule: Q01DX009 (ip), vehicle: other) 156 % of control and 175 % of control and 192 % of control; (dose: 16.0 mg/kg/injection, schedule: Q01DX009 (ip), vehicle: other) 197 % of control and 288 % of control and 300 % of control; (dose: 32.0 mg/kg/injection, schedule: Q01DX009 (ip), vehicle: other) 281 % of control.
Turning to `CCC(C)C(CO)c1ccccc1` (stereo not drawn), the T/C is 102 % of control under setting [9] and 99 % of control under setting [10].
With `O=C(O)C(c1ccccc1)C1CCCC1` (stereo not drawn), the T/C reads like this: under setting [12], 109 % of control; under setting [9], 111 % of control; under setting [10], 94 % of control and 106 % of control.
`CCCCC/C(C)=N\Nc1ccccn1`: the T/C by setting is: (dose: 12.5 mg/kg/injection, schedule: Q01DX009 (ip), vehicle: saline sonified) 106 % of control; (dose: 25.0 mg/kg/injection, schedule: Q01DX009 (ip), vehicle: saline sonified) 100 % of control; (dose: 50.0 mg/kg/injection, schedule: Q01DX009 (ip), vehicle: saline sonified) 102 % of control; (dose: 100.0 mg/kg/injection, schedule: Q01DX009 (ip), vehicle: saline sonified) 100 % of control.
For the compound `CN(C)CCCn1c2c(c3ccccc31)CCCCCC2`, the T/C is 119 % of control under setting [1]; 100 % of control under setting [2]; 100 % of control under setting [3]; 113 % of control under setting [8]; 94 % of control under setting [4].
As to `CNNC(=O)NC`, the T/C runs as follows: (dose: 1.56 mg/kg/injection, schedule: Q01DX009 (ip), vehicle: saline) 87 % of control; under setting [1], 95 % of control; under setting [3], 100 % of control.
With `COc1cc2cc3cc4cc(OC)c(OC)cc4c(C)[n+]3cc2cc1OC` (tested in a mixture with another compound), the T/C reads like this: (dose: 10.0 mg/kg/injection, schedule: Q01DX009 (ip), vehicle: Klucel (hydroxypropylcellulose) (HPC)) 96 % of control; (dose: 20.0 mg/kg/injection, schedule: Q01DX009 (ip), vehicle: Klucel (hydroxypropylcellulose) (HPC)) 95 % of control.
Turning to `CC1=[N+](C)C(C)(C)CC(C)O1` (stereo not drawn), the T/C under setting [1] was 91 % of control, the T/C under setting [2] was 104 % of control, the T/C under setting [3] is 104 % of control and the T/C under setting [8] is 91 % of control.
Turning to `[CH3][Hg][O]C(C)=O`, the T/C runs as follows: under setting [13], 94 % of control; under setting [14], 86 % of control.
Take `Nc1nc(SCc2ccccc2Cl)c2ncn(C3OC(CO)C(O)C3O)c2n1` (stereo not drawn): the T/C by setting is: under setting [7], 89 % of control; under setting [10], 88 % of control.
As to `Cc1ccccc1N=Nc1c(N)ccc2ccccc12`, the T/C is 110 % of control under setting [7]; 106 % of control under setting [15]; 106 % of control (dose: 200.0 mg/kg/injection, schedule: Q01DX009 (ip), vehicle: Klucel (hydroxypropylcellulose) (HPC)).
Regarding `O=C(COc1ccc(Cl)cc1)Nc1ccccc1F`, the T/C under setting [9] was 102 % of control, the T/C under setting [10] was 92 % of control and the T/C under setting [11] was 92 % of control.
On to `O=C(COc1cc(Cl)c(Cl)cc1Cl)OCCOc1cc(Cl)c(Cl)cc1Cl`, for which the T/C is 98 % of control (dose: 12.0 mg/kg/injection, schedule: Q01DX009 (ip), vehicle: Klucel (hydroxypropylcellulose) (HPC)); 98 % of control (dose: 24.0 mg/kg/injection, schedule: Q01DX009 (ip), vehicle: Klucel (hydroxypropylcellulose) (HPC)); 91 % of control (dose: 48.0 mg/kg/injection, schedule: Q01DX009 (ip), vehicle: Klucel (hydroxypropylcellulose) (HPC)); 93 % of control (dose: 96.0 mg/kg/injection, schedule: Q01DX009 (ip), vehicle: Klucel (hydroxypropylcellulose) (HPC)).
